Assay results published in PubChem BioAssay (NCI).
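Five compound concentrations were applied to cells in 96-well plates for 48 hours; endpoints were derived by simple linear interpolation of the resulting dose-response curve. At the GI50, growth is halved. At the TGI there is no net growth.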

How the values were obtained:
Experiment in all cases: inhibition of tumour cell growth, NCI panel, 48 h
SW-620 colon = test system: SW-620 colon
NCI-H23 lung = test system: NCI-H23 lung
SK-MEL-2 melanoma = test system: SK-MEL-2 melanoma
HCC-2998 colon = test system: HCC-2998 colon
MALME-3M melanoma = test system: MALME-3M melanoma
HT29 colon = test system: HT29 colon
EKVX NSCLC = test system: EKVX NSCLC
SK-OV-3 ovarian = test system: SK-OV-3 ovarian
BT-549 breast = test system: BT-549 breast
CCRF-CEM leukemia = test system: CCRF-CEM leukemia
UACC-62 melanoma = test system: UACC-62 melanoma
NCI-H226 lung = test system: NCI-H226 lung
HCT-116 colon = test system: HCT-116 colon
OVCAR-4 ovarian = test system: OVCAR-4 ovarian
COLO 205 colon = test system: COLO 205 colon
NCI-H460 lung = test system: NCI-H460 lung
HOP-92 NSCLC = test system: HOP-92 NSCLC
SK-MEL-28 melanoma = test system: SK-MEL-28 melanoma
HOP-62 NSCLC = test system: HOP-62 NSCLC
NCI-H522 lung = test system: NCI-H522 lung
OVCAR-5 ovarian = test system: OVCAR-5 ovarian
UO-31 renal = test system: UO-31 renal
ACHN renal = test system: ACHN renal
OVCAR-3 ovarian = test system: OVCAR-3 ovarian
OVCAR-8 ovarian = test system: OVCAR-8 ovarian
HCT-15 colon = test system: HCT-15 colon
MDA-MB-231 breast = test system: MDA-MB-231 breast
786-0 renal = test system: 786-0 renal
U251 CNS = test system: U251 CNS
UACC-257 melanoma = test system: UACC-257 melanoma
HS 578T breast = test system: HS 578T breast
MDA-MB-435 = test system: MDA-MB-435
SF-539 CNS = test system: SF-539 CNS
SF-268 CNS = test system: SF-268 CNS
K-562 leukemia = test system: K-562 leukemia
SF-295 CNS = test system: SF-295 CNS
MCF7 breast = test system: MCF7 breast
MDA-MB-468 breast = test system: MDA-MB-468 breast
IGROV1 ovarian = test system: IGROV1 ovarian
CAKI-1 renal = test system: CAKI-1 renal
HL-60(TB) leukemia = test system: HL-60(TB) leukemia
A549 NSCLC = test system: A549 NSCLC
RXF 393 renal = test system: RXF 393 renal
MOLT-4 leukemia = test system: MOLT-4 leukemia
SR leukemia = test system: SR leukemia
SNB-19 CNS = test system: SNB-19 CNS
SN12C renal = test system: SN12C renal
T-47D breast = test system: T-47D breast
KM12 colon = test system: KM12 colon
SK-MEL-5 melanoma = test system: SK-MEL-5 melanoma
A498 renal = test system: A498 renal
M14 melanoma = test system: M14 melanoma
TK-10 renal = test system: TK-10 renal

COc1ccc(N=Nc2c(N)nn3c(N)c(C#N)c(-c4ccccc4)nc23)cc1
GI50 (SW-620 colon): > 100 µM | TGI (SW-620 colon): > 100 µM | GI50 (NCI-H23 lung): 5.05 µM | TGI (NCI-H23 lung): > 100 µM | GI50 (SK-MEL-2 melanoma): 16.6 µM | TGI (SK-MEL-2 melanoma): > 100 µM | GI50 (HCC-2998 colon): > 100 µM | TGI (HCC-2998 colon): > 100 µM | GI50 (MALME-3M melanoma): 5.46 µM | TGI (MALME-3M melanoma): > 100 µM | GI50 (HT29 colon): > 100 µM | TGI (HT29 colon): > 100 µM | GI50 (EKVX NSCLC): 8.82 µM | TGI (EKVX NSCLC): > 100 µM | GI50 (SK-OV-3 ovarian): 6.04 µM | TGI (SK-OV-3 ovarian): > 100 µM | GI50 (BT-549 breast): 4.29 µM | TGI (BT-549 breast): > 100 µM | GI50 (CCRF-CEM leukemia): > 100 µM | TGI (CCRF-CEM leukemia): > 100 µM | GI50 (UACC-62 melanoma): 20.9 µM | TGI (UACC-62 melanoma): > 100 µM | GI50 (NCI-H226 lung): 2.56 µM | TGI (NCI-H226 lung): 24.8 µM | GI50 (HCT-116 colon): > 100 µM | TGI (HCT-116 colon): > 100 µM | GI50 (OVCAR-4 ovarian): 2.78 µM | TGI (OVCAR-4 ovarian): 29.3 µM | GI50 (COLO 205 colon): > 100 µM | TGI (COLO 205 colon): > 100 µM | GI50 (NCI-H460 lung): 4.06 µM | TGI (NCI-H460 lung): > 100 µM | GI50 (HOP-92 NSCLC): 2.65 µM | TGI (HOP-92 NSCLC): 52.6 µM | GI50 (SK-MEL-28 melanoma): > 100 µM | TGI (SK-MEL-28 melanoma): > 100 µM | GI50 (HOP-62 NSCLC): 3.7 µM | TGI (HOP-62 NSCLC): 41.5 µM | GI50 (NCI-H522 lung): 6.25 µM | TGI (NCI-H522 lung): > 100 µM | GI50 (OVCAR-5 ovarian): > 100 µM | TGI (OVCAR-5 ovarian): > 100 µM | GI50 (UO-31 renal): 8.22 µM | TGI (UO-31 renal): > 100 µM | GI50 (ACHN renal): 4.08 µM | TGI (ACHN renal): > 100 µM | GI50 (OVCAR-3 ovarian): 4.18 µM | TGI (OVCAR-3 ovarian): > 100 µM | GI50 (OVCAR-8 ovarian): 4.61 µM | TGI (OVCAR-8 ovarian): > 100 µM | GI50 (HCT-15 colon): > 100 µM | TGI (HCT-15 colon): > 100 µM | GI50 (MDA-MB-231 breast): 3.66 µM | TGI (MDA-MB-231 breast): 50.5 µM | GI50 (786-0 renal): 12.8 µM | TGI (786-0 renal): > 100 µM | GI50 (U251 CNS): 3.94 µM | TGI (U251 CNS): > 100 µM | GI50 (UACC-257 melanoma): > 100 µM | TGI (UACC-257 melanoma): > 100 µM | GI50 (HS 578T breast): 3 µM | TGI (HS 578T breast): 65 µM | GI50 (MDA-MB-435): > 100 µM | TGI (MDA-MB-435): > 100 µM | GI50 (SF-539 CNS): 3.26 µM | TGI (SF-539 CNS): 18.6 µM | GI50 (SF-268 CNS): 5.88 µM | TGI (SF-268 CNS): > 100 µM | GI50 (K-562 leukemia): > 100 µM | TGI (K-562 leukemia): > 100 µM | GI50 (SF-295 CNS): 4.03 µM | TGI (SF-295 CNS): > 100 µM | GI50 (MCF7 breast): 1.89 µM | TGI (MCF7 breast): > 100 µM | GI50 (MDA-MB-468 breast): 4.07 µM | TGI (MDA-MB-468 breast): > 100 µM | GI50 (IGROV1 ovarian): 2.6 µM | TGI (IGROV1 ovarian): > 100 µM | GI50 (CAKI-1 renal): 4.58 µM | TGI (CAKI-1 renal): > 100 µM | GI50 (HL-60(TB) leukemia): > 100 µM | TGI (HL-60(TB) leukemia): > 100 µM | GI50 (A549 NSCLC): > 100 µM | TGI (A549 NSCLC): > 100 µM | GI50 (RXF 393 renal): 3.17 µM | TGI (RXF 393 renal): 12 µM | GI50 (MOLT-4 leukemia): > 100 µM | TGI (MOLT-4 leukemia): > 100 µM | GI50 (SR leukemia): > 100 µM | TGI (SR leukemia): > 100 µM | GI50 (SNB-19 CNS): 5.06 µM | TGI (SNB-19 CNS): 44.1 µM | GI50 (SN12C renal): 5.8 µM | TGI (SN12C renal): > 100 µM | GI50 (T-47D breast): 2.75 µM | TGI (T-47D breast): > 100 µM | GI50 (KM12 colon): > 100 µM | TGI (KM12 colon): > 100 µM | GI50 (SK-MEL-5 melanoma): 9.02 µM | TGI (SK-MEL-5 melanoma): > 100 µM | GI50 (A498 renal): > 100 µM | TGI (A498 renal): > 100 µM | GI50 (M14 melanoma): > 100 µM | TGI (M14 melanoma): > 100 µM | GI50 (TK-10 renal): 5.88 µM | TGI (TK-10 renal): > 100 µM
